From US5508387A, “Selectin binding glycopeptides” (Glycomed Incorporated, priority 1993, dated 1996)

What was measured:
L-selectin = assay: ELISA assay: inhibition of L-selectin-IgG chimera binding to 2,3 sLex glycolipid; settings: FIG. 4; tested at several concentrations; results expressed as percent of control binding
Procedure: (§1) An ELISA assay (Foxall et al, The Journal of Cell Biology (1992) 117:895) is preferably used which consists of the following three steps:
(§2) 1. 2,3 sLex glycolipid is transferred into microtitre wells as solutions and then evaporated off. Excess, which remained unattached, is washed off with water. The wells are then blocked with a blocking agent, preferably BSA.
(§3) 2. Preparation of "multivalent" receptor of the Selectin-IgG chimera is carried out by combining the respective chimera with biotin labelled goat F(ab')2 anti-human IgG (Fc specific) and streptavidin-alkaline phosphatase diluted appropriately and incubated. This allows the soluble multivalent receptor complex to form.
(§4) 3. Potential inhibitors such as glyco-amino acids or glycopeptides of structural formula I are allowed to react with the soluble receptor. This solution is then placed in the microtitre wells that are prepared in step 1. The plate is incubated to allow the soluble receptor to bind to its natural ligand. In the presence of a strong inhibitor only a few of the receptors should be free to bind to the microtitre plate coated with the natural ligand.
(§5) The positive control is the signal produced by the soluble receptor when it is allowed to react with the natural ligand in the microtitre wells in the absence of any inhibitor. This is considered 100% binding. The signal produced by the receptor that is previously treated with an inhibitor (recorded as O.D.), is divided by the signal produced by the positive control and multiplied by 100 to calculate the % receptor bound to the well in the presence of the inhibitor. The reciprocal of this is the % inhibition.
(§6) The glyco-amino acids or glycopeptides of structural formula I can be tested for their ability to bind to a selectin receptor and/or block the binding site of the receptor and thereby prevent a natural ligand from binding to the selectin receptor (Foxall et al, The Journal of Cell Biology (1992) 117:895). A generalized procedure for testing the ligands is given below.
(§7) An ELISA assay is preferably used which consisted of the following three steps:
1. 2,3 sLex glycolipid (25 picomol/well) was transferred into microtitre wells as solutions and evaporated off. Excess, which remained unattached, was washed off with water. The wells were blocked with 5% BSA at room temperature for an hour and washed with PBS containing 1 mM calcium.
2. Preparation of "multivalent" receptor of the Selectin-IgG chimera was carried out by combining the respective chimera (1 μg/mL) with biotin labelled goat F(ab')2 anti-human IgG (Fc specific) and streptavidin-alkaline phosphatase diluted 1:1000 in 1% BSA-PBS (1 mM calcium) and incubating at 37° C. for 15 min. This allowed the soluble multivalent receptor complex to form.
3. Potential inhibitors such as glyco-amino acids or glycopeptides of structural formula I were allowed to react with the soluble receptor at 37° C. for 45 min. This test assumes that optimal binding, between the soluble phase receptor complex and the inhibitor (non-natural ligand), would occur within this time frame. This solution was placed in the microtitre wells that were prepared in step 1. The plate was incubated at 37° C. for 45 minutes to allow the soluble receptor to bind to its natural ligand. In the presence of a strong inhibitor only a few receptors would be free to bind to the microtitre plate coated with the natural ligand.
as §5, with “control was” for “control is”, “it was” for “it is”, “This was” for “This is”, “that was” for “that is”, “O.D.), was” for “O.D.), is”

P-selectin [1] = assay: P-selectin/HL-60 assay; format: cell-based; settings: FIG. 6; HL-60 cells; tested at several concentrations
Excerpt: The glyco-amino acids or glycopeptides of structural formula I can be tested for their ability to inhibit P-selectin binding to its native ligand. A generalized procedure for testing the ligands is given below. A P-selectin/HL-60 assay is preferably used which consists of the following steps:
1. HL-60 cells are harvested and pelleted by centrifugation. The cells are washed, counted and the volume adjusted appropriately.
2. PVC microtiter plate is blocked with a blocking agent, and washed with TBS-BSA.
3. P-selectin is diluted appropriately in BSA-TBS Ca containing goat F(ab')2 anti-human IgG (Fc spec) and streptavidin-alkaline phosphatase. Positive controls have DMF added to equal the highest concentration of DMF in the sample compounds.
4. Ligands are incubated at room temperature with brisk rotation. […]
Para-nitrophenylphosphonate is added to the plate. […] Aliqouts from each well is transferred to a polystyrene microtiter plate and O.D. read at 405 nm. […] The signal produced by the receptor that is previously treated with an inhibitor (recorded as O.D.), is divided by the signal produced by the positive control and multiplied by 100 to calculate the % receptor bound to the well in the presence of the inhibitor. […]
1. […] The cells were washed three times with TBS without Ca, counted and the volume adjusted to 1.9×10^6 /ml in 1% BSA-TBS Ca just prior to use. […]

[2] = tested on: lymphocyte binding to high endothelial venules (HEV), L-selectin mediated; assay: Stamper-Woodruff assay (lymphocyte adhesion to HEV of lymph node frozen sections); format: cell-based, female Swiss Webster mice; female Sprague-Dawley rats; settings: FIG. 7, percent of relative binding
Excerpt: (§8) Lymphocytes are known to circulate from blood to lymphoid tissues via high endothelial venules (HEV) on lymph nodes. L-selectin is expressed on the surface of lymphocytes and is believed to mediate lymphocyte adhesion by binding to the natural ligand on the HEV. The glyco-amino acids or glycopeptides of structural formula I can be tested for their ability to bind to a selectin receptor and/or block the binding site of the receptor and thereby prevent a natural ligand from binding to the selectin receptor. See, for example, Stoolman et al, The Journal of Cell Biology (1983) 96:722. The Stamper-Woodruff assay is well known in the an, and generally consists of the following three steps:
1. Preparation of the lymphocytes:
(a) The lymphocytes are obtained from the mesenteric nodes of female Swiss Webster mice, by gently teasing tissues with phosphate buffered saline (PBS). The cells are obtained by gently squeezing the cells from the tissues. The cells are dispersed and the cell clumps are removed. The single cell suspension is suspended, washed, and kept on ice until use (less than two hours). Cells are counted and prepared at an appropriate concentration.
(b) The superficial and deep cervical lymph nodes of female Sprague-Dawley rats are dissected and prepared in the same way as the mice.
2. Preparation of frozen sections:
Superficial or deep cervical lymph nodes are dissected from the animals, snap frozen, and immediately placed in a cryostat for sectioning. 10-μm sections are prepared and transferred onto glass slides, and air dried.
3. Potential inhibitors are added to lymphocyte suspensions 10-30 minutes before the start of the binding assay, and unless otherwise stated, are present throughout the subsequent binding incubation.
The frozen sections are used in the order in which they are cut. Aliquots of untreated lymphocytes (positive control), suspensions containing fucoidin (negative control) and suspensions containing potential inhibitors are layered on the sections in an arbitrary sequence such that the control and each test substance are represented once in a series.
The binding of the lymphocytes to the HEV is easily distinguishable from binding elsewhere by virtue of the characteristic picture of tightly packed, darkly stained lymphocytes overlaying the histologically distinctive HEV. The number of adherent lymphocytes on each HEV are counted and the average number of adherent cells per HEV (cells bound per HEV) is calculated. The results are expressed as a percent of relative binding, wherein the positive control is considered to be 100% binding.
as §8, with “were” for “can be”, “art,” for “an,”
(a) The lymphocytes were obtained from the mesenteric nodes of female Swiss Webster mice (23-27 g), by gently teasing tissues by phosphate buffered saline (PBS). […] Cells were counted and prepared at 3-4×10^7 cells/ml. […]

P-selectin [3] = assay: ELISA assay: inhibition of P-selectin-IgG chimera binding to 2,3 sLex glycolipid; settings: FIG. 5; tested at several concentrations; results expressed as percent of control binding
Procedure: as §1, §2, §3, §4, §5, §6, §7
1. 2,3 sLex glycolipid (25 picomol/well) was transferred into microtitre wells as solutions and evaporated off. Excess, which remained unattached, was washed off with water. […]
as §5, with “was” for “is”, “This is considered 100% binding.” left out, “The reciprocal of this is the % inhibition.” left out

Compound | inhibition of the binding of sLe^x to L-selectin (L-selectin) | inhibition of the binding of sLe^x to P-selectin in the HL-60 assay (P-selectin [1]) | inhibitory effects in the Stamper-Woodruff assay (cell adhesion) [2] | inhibition of the binding of sLe^x to P-selectin (P-selectin [3])
C[C@H](NC(=O)C[C@@H]1O[C@@H](C)[C@@H](O)[C@@H](O)[C@@H]1O)C(=O)N1CCC[C@H]1C(=O)N[C@@H](Cc1ccccc1)C(=O)O [#2, N-[(1-deoxy-α-L-fucopyranosyl)acetyl]-L-alanine-L-proline-L-phenylalanine] | inhibit the binding of sLe^x to L-selectin | inhibit the binding of sLe^x to P-selectin | inhibitory effects | 
C[C@@H]1O[C@@H](CC(=O)N2CCC[C@H]2C(=O)N[C@H](C(=O)O)c2ccccc2)[C@@H](O)[C@H](O)[C@@H]1O [#5, N-[(1-deoxy-α-L-fucopyranosyl)acetyl]-L-proline-L-phenylglycine] | inhibit the binding of sLe^x to L-selectin |  | inhibitory effects | inhibit the binding of sLe^x to P-selectin
C[C@@H]1O[C@@H](CC(=O)N2CCC[C@H]2C(=O)N[C@@H](Cc2ccccc2)C(=O)O)[C@@H](O)[C@H](O)[C@@H]1O [#1, N-[(1-deoxy-α-L-fucopyranosyl)acetyl]-L-proline-L-phenylalanine] | inhibit the binding of sLe^x to L-selectin | inhibit the binding of sLe^x to P-selectin | inhibitory effects | inhibit the binding of sLe^x to P-selectin
C[C@@H]1O[C@@H](CCCC(=O)N2CCC[C@H]2C(=O)N[C@@H](Cc2ccccc2)C(=O)O)[C@@H](O)[C@H](O)[C@@H]1O [#4, N-[4-(1-deoxy-α-L-fucopyranosyl)n-butanoyl]-L-proline-L-phenylalanine] | inhibit the binding of sLe^x to L-selectin |  | inhibitory effects | inhibit the binding of sLe^x to P-selectin
CC1OC(CCCC(=O)NC(Cc2ccccc2)C(=O)O)C(O)C(O)C1O [#6, N-[4-(1-deoxy-α-L-fucopyranosyl)n-butanoyl]-L-phenylalanine] | inhibit the binding of sLe^x to L-selectin |  |  | 
C[C@@H]1O[C@@H](CC(=O)N[C@@H](CCCCNC(=O)OC(C)(C)C)C(=O)O)[C@@H](O)[C@H](O)[C@@H]1O [#3, N-ω-t-butoxylcarbonyl-N-α-[(1-deoxy-α-L-fucopyranosyl)acetyl]-L-lysine] | inhibit the binding of sLe^x to L-selectin |  | inhibitory effects | inhibit the binding of sLe^x to P-selectin
